Reference: patent US11524055B2, “Methods for treating diseases mediated by ERBB4-positive pro-inflammatory macrophages” (Children's Hospital Los Angeles, priority 2015, dated 2022)

System: M1-polarized Mø (classically activated BMDMs)
Test: Cell Titer Blue (resazurin-based) cell viability assay, classically activated (M1) BMDMs
Design: species or system mouse
Conditions: 1 h pre-treatment, then 100 ng/ml NRG4 and 100 ng/ml LPS
Procedure: (FIG. 8A) Classically activated (M1) or alternatively activated (M2) BMDMs were treated with NRG4 (100 ng/ml) for 48 hours and analyzed by resazurin-based cell titer assay to assess cell numbers compared to control. (FIG. 8B) Classically activated BMDMs pre-incubated for 30 minutes with or without 2 μg/ml ErbB4 neutralizing antibody (E4BA), and treated with or without NRG4 (100 ng/ml) for 48 hours, were stained for cleaved caspase-3. […] (FIG. 8C) Classically activated BMDMs treated with NRG4 (100 ng/ml) for 48 hours were stained for annexin V and propidium iodide (PI), and analyzed by flow cytometry to determine apoptotic cells. n=3-6 independent experiments for each panel. Error bars represent SEM. *, p<0.05; **, p<0.01.
(FIG. 9B) Classically activated BMDMs were pre-treated for 1 hour with metalloprotease inhibitor (GM6001, 10 γ-secretase inhibitor (DAPT, 10 or ADAM17 inhibitor (GW280264X, 3 μM) followed by 100 ng/ml NRG4 and 100 ng/ml LPS. Percent cell viability was analyzed by rezasurin-based cell titer assay. Error bars represent SEM. ***, p<0.001. (FIG. 9C) Immunofluorescence analysis of ErbB4 localization to the mitochondria of classically activated BMDMs treated with or without NRG4 (100 ng/ml) for 48 hours. Arrows point to representative cells with ErbB4/mitochondrial overlap. n=4 independent experiments.
IFNγ/LPS-treated Mø were exposed to NRG4 (100 ng/ml)+/−ErbB4 blocking antibody (E4BA; 2 μg/ml) for 48 h and counted by Cell Titer Blue assay (Promega). n=4. *, p<0.01.
For BMDMs, adherent cells were washed at 3 days and re-fed with M-CSF containing media until experimentation at day 7-8. For M1 polarization, cells were pre-treated with 100 U/ml IFNγ for 16 hours, then stimulated with 100 ng/ml LPS.
BMDMs were plated in 96 well plates at 40,000 cells per well. Cells were washed and plated in DMEM with 10% heat-inactivated FBS, 100 U/ml penicillin and streptomycin, and given 100 U/ml IFNγ overnight. […] Relative cell numbers were determined by Cell Titer Blue (resazurin-based assay) following manufacturer's instructions (Promega, G8081). […]

`CNC(=O)[C@H](Cc1c[nH]c2ccccc12)NC(=O)[C@@H](CC(=O)NO)CC(C)C` [GM6001] was tested, and the “Effect on NRG4-induced cell death (percent cell viability)” value (“Effect … (percent cell viability)” below) (inhibitor 10 μM) was “protected against the NRG4-induced cell death”.
With GW280264X the “Effect … (percent cell viability)” value (inhibitor 3 μM) was “protected against the NRG4-induced cell death”.
With `C[C@H](NC(=O)Cc1cc(F)cc(F)c1)C(=O)N[C@H](C(=O)OC(C)(C)C)c1ccccc1` [DAPT] the “Effect … (percent cell viability)” value (inhibitor 10 μM) was “protected against the NRG4-induced cell death”.
